According to patent US8822463B2, “Methylcyclohexane derivatives and uses thereof” (Sk Biopharmaceuticals Co., Ltd., priority 2010, dated 2014):
Structures can show the parent of a compound that is named as a salt.

How the values were obtained:
[1] = system: LPS-induced NO production in mouse microglia (BV2); test: LPS-induced NO production inhibition test, mouse microglia (BV2); format: cell-based; conditions: BV-2, BV2 cells, 20 ng/ml LPS, 24 hours, Griess reagent
Description: (§1) Mouse monocytes (RAW) and mouse microglia (BV2) cells were cultured on a 96-well transparent plate (Nunc) in such a way that each of the wells contained 60,000 and 35,000 cells respectively. After 18 hours, when stabilized, the cells were treated with lipopolysaccharide (Sigma, USA, Cat No. L2630) in a morbid state derived from 20 ng/ml of Escherichia coli O111:B4 and 4 different concentrations (50 uM, 12.5 uM, 3.1 uM, and 0.8 uM) of the compounds synthesized according to Examples 1 to 55. Then, the cells were cultured for 24 hours, and a concentration of increased NO was measured. The NO concentration was determined by measuring absorption at a wavelength of 540 nm after a Griess reagent including 0.1% N-(1-naphthyl)ethylenediamine dihydrochloride, 1% sulfanilamide, and 2.5% phosphoric acid were added thereto.

[2] = system: LPS-induced NO production in mouse monocytes (RAW); test: LPS-induced NO production inhibition test, mouse monocytes (RAW); format: cell-based; conditions: Monocyte, RAW cells, 20 ng/ml LPS, 24 hours, Griess reagent
Description: as §1

Structure (SMILES) | IC50 [1] [µM] | IC50 [2] [µM]
O=C(NCCc1ccccc1)OC1CCC(COC(=O)N2CCCC2)CC1 (centres unmarked) [Example 1, pyrrolidine-1-carboxylic acid 4-phenethylcarbamoyloxy-cyclohexylmethyl ester] | 19.9 | 27.9
O=C(NCCc1ccccn1)OC1CCC(COC(=O)N2CCCC2)CC1 (centres unmarked) [Example 2, pyrrolidine-1-carboxylic acid 4-(2-pyridin-2-yl-ethylcarbamoyloxy)-cyclohexylmethyl ester] | 40.1 | > 50
O=C(NCCc1cccnc1)OC1CCC(COC(=O)N2CCCC2)CC1 (centres unmarked) [Example 3, pyrrolidine-1-carboxylic acid 4-(2-pyridin-3-yl-ethylcarbamoyloxy)-cyclohexylmethyl ester] | 30.3 | 22.3
O=C(NCCc1ccncc1)OC1CCC(COC(=O)N2CCCC2)CC1 (centres unmarked) [Example 4, pyrrolidine-1-carboxylic acid 4-(2-pyridin-4-yl-ethylcarbamoyloxy)-cyclohexylmethyl ester] | 32.9 | 30.3
O=C(NCCc1cccc[n+]1[O-])OC1CCC(COC(=O)N2CCCC2)CC1 (centres unmarked) [Example 5, pyrrolidine-1-carboxylic acid 4-[2-(1-oxy-pyridin-2-yl)-ethylcarbamoyloxy]-cyclohexylmethyl ester] | 48.7 | > 50
O=C(NCCc1ccc[n+]([O-])c1)OC1CCC(COC(=O)N2CCCC2)CC1 (centres unmarked) [Example 6, pyrrolidine-1-carboxylic acid 4-[2-(1-oxy-pyridin-3-yl)-ethylcarbamoyloxy]-cyclohexylmethyl ester] | > 50 | 41.2
O=C(NCc1ccccn1)OC1CCC(COC(=O)N2CCCC2)CC1 (centres unmarked) [Example 7, pyrrolidine-1-carboxylic acid 4-(pyridin-2-ylmethylcarbamoyloxy)-cyclohexylmethyl ester] | > 50 | > 50
O=C(NCc1ccncc1)OC1CCC(COC(=O)N2CCCC2)CC1 (centres unmarked) [Example 9, pyrrolidine-1-carboxylic acid 4-(pyridin-4-ylmethylcarbamoyloxy)-cyclohexylmethyl ester] | > 50 | > 50
CN(Cc1ccccn1)C(=O)OC1CCC(COC(=O)N2CCCC2)CC1 (centres unmarked) [Example 10, pyrrolidine-1-carboxylic acid 4-(methyl-pyridin-2-ylmethyl-carbamoyloxy)-cyclohexylmethyl ester] | 5.3 | 46.1
O=C(NCc1cc[n+]([O-])cc1)OC1CCC(COC(=O)N2CCCC2)CC1 (centres unmarked) [Example 11, pyrrolidine-1-carboxylic acid 4-(1-oxy-pyridin-4-ylmethylcarbamoyloxy)-cyclohexylmethyl ester] | > 50 | 10.2
O=C(NCc1ccc[n+]([O-])c1)OC1CCC(COC(=O)N2CCCC2)CC1 (centres unmarked) [Example 12, pyrrolidine-1-carboxylic acid 4-(1-oxy-pyridin-3-ylmethylcarbamoyloxy)-cyclohexylmethyl ester] | > 50 | > 50
O=C(NCc1cccc[n+]1[O-])OC1CCC(COC(=O)N2CCCC2)CC1 (centres unmarked) [Example 13, pyrrolidine-1-carboxylic acid 4-(1-oxy-pyridin-2-ylmethylcarbamoyloxy)-cyclohexylmethyl ester] | > 50 | 27.9
O=C(NCc1cccc(Cl)n1)OC1CCC(COC(=O)N2CCCC2)CC1 (centres unmarked) [Example 14, pyrrolidine-1-carboxylic acid 4-(6-chloro-pyridin-2-ylmethylcarbamoyloxy)-cyclohexylmethyl ester] | 22.3 | 21.7
O=C(NCc1ccc(C(F)(F)F)nc1)OC1CCC(COC(=O)N2CCCC2)CC1 (centres unmarked) [Example 19, pyrrolidine-1-carboxylic acid 4-(6-trifluoromethyl-pyridin-3-ylmethylcarbamoyloxy)-cyclohexylmethyl ester] | 13.8 | 11.1
Cc1cccc(NC(=O)OC2CCC(COC(=O)N3CCCC3)CC2)n1 (centres unmarked) [Example 22, pyrrolidine-1-carboxylic acid 4-(6-methyl-pyridin-2-ylcarbamoyloxy)-cyclohexylmethyl ester] | 21.7 | 35.8
O=C(Nc1cc(Cl)nc(Cl)c1)OC1CCC(COC(=O)N2CCCC2)CC1 (centres unmarked) [Example 24, pyrrolidine-1-carboxylic acid 4-(2,6-dichloro-pyridin-4-ylcarbamoyloxy)-cyclohexylmethyl ester] | > 50 | > 50
O=C(Nc1cccc[n+]1[O-])OC1CCC(COC(=O)N2CCCC2)CC1 (centres unmarked) [Example 25, pyrrolidine-1-carboxylic acid 4-(1-oxy-pyridin-2-ylcarbamoyloxy)-cyclohexylmethyl ester] | 15.5 | 24.9
O=C(NCc1ccccn1)OC1CCC(COC(=O)N2CCCCC2)CC1 (centres unmarked) [Example 26] | 36.8 | 46.1
O=C(NCc1ccccn1)OC1CCC(COC(=O)N2CCOCC2)CC1 (centres unmarked) [Example 27] | > 50 | 50

Structure (SMILES) | IC50 [1] [µM] | IC50 [2] [µM]
O=C(NCc1ccccn1)OC1CCC(COC(=O)N2CCNCC2)CC1 (centres unmarked) [Example 28, HCl salt] | 44.8 | > 50
CN1CCN(C(=O)OCC2CCC(OC(=O)NCc3ccccc3)CC2)CC1 (centres unmarked) [Example 29, 4-methyl-piperazine-1-carboxylic acid 4-benzylcarbamoyloxy-cyclohexylmethyl ester] | > 50 | 46.1
O=C(OC1CCC(COC(=O)N2CCCC2)CC1)c1ccccn1 (centres unmarked) [Example 30, pyridine-2-carboxylic acid 4-(pyrrolidine-1-carbonyloxymethyl)-cyclohexyl ester] | > 50 | > 50
O=C(OC1CCC(COC(=O)N2CCCC2)CC1)c1cccnc1 (centres unmarked) [Example 31, pyridine-3-carboxylic acid 4-(pyrrolidine-1-carbonyloxymethyl)-cyclohexyl ester] | 21.1 | > 50
O=C(OC1CCC(COC(=O)N2CCCC2)CC1)c1ccncc1 (centres unmarked) [Example 32, pyridine-4-carboxylic acid 4-(pyrrolidine-1-carbonyloxymethyl)-cyclohexyl ester] | 34.8 | 21.1
O=C(Cc1ccccn1)OC1CCC(COC(=O)N2CCCC2)CC1 (centres unmarked) [Example 33, pyrrolidine-1-carboxylic acid 4-(2-pyridin-2-yl-acetoxy)-cyclohexylmethyl ester] | > 50 | > 50
O=C(OCC1CCC(OCc2ccccc2)CC1)N1CCCC1 (centres unmarked) [Example 34, pyrrolidine-1-carboxylic acid 4-benzyloxy-cyclohexylmethyl ester] | 27.1 | 24.9
O=C(OCC1CCC(OCc2ccccn2)CC1)N1CCCC1 (centres unmarked) [Example 35, pyrrolidine-1-carboxylic acid 4-(pyridin-2-ylmethoxy)-cyclohexylmethyl ester] | 50 | > 50
O=C(OCC1CCC(OCc2cccc[n+]2[O-])CC1)N1CCCC1 (centres unmarked) [Example 36, pyrrolidine-1-carboxylic acid 4-(1-oxy-pyridin-2-ylmethoxy)-cyclohexylmethyl ester] | > 50 | > 50
O=C(OCC1CCC(NCc2ccccc2)CC1)N1CCCC1 (centres unmarked) [Example 37, pyrrolidine-1-carboxylic acid 4-benzylaminocyclohexylmethyl ester HCl salt] | > 50 | 46.1
COc1ccc(CNC2CCC(COC(=O)N3CCCC3)CC2)cc1 (centres unmarked) [Example 38, pyrrolidine-1-carboxylic acid 4-(4-methoxy-benzylamino)-cyclohexylmethyl ester HCl salt] | > 50 | 35.8
COc1ccc(CCNC2CCC(COC(=O)N3CCCC3)CC2)cc1 (centres unmarked) [Example 39, pyrrolidine-1-carboxylic acid 4-[2-(4-methoxy-phenyl)-ethylamino]-cyclohexylmethyl ester HCl salt] | > 50 | > 50
O=C(NC1CCC(COC(=O)N2CCCC2)CC1)OCc1cccnc1 (centres unmarked) [Example 41, pyrrolidine-1-carboxylic acid 4-(pyridin-3-ylmethoxycarbonylamino)-cyclohexylmethyl ester] | > 50 | 50
O=C(NC1CCC(COC(=O)N2CCCC2)CC1)OCc1ccnc(Cl)c1 (centres unmarked) [Example 43, pyrrolidine-1-carboxylic acid 4-(2-chloro-pyridin-4-ylmethoxycarbonylamino)-cyclohexylmethyl ester] | 12 | 10.5
O=C(NC1CCC(COC(=O)N2CCCC2)CC1)OCc1cccnc1Cl (centres unmarked) [Example 44, pyrrolidine-1-carboxylic acid 4-(2-chloro-pyridin-3-ylmethoxycarbonylamino)-cyclohexylmethyl ester] | 16.8 | 21.7
O=C(NC1CCC(COC(=O)N2CCCC2)CC1)OCc1cc(Cl)nc(Cl)c1 (centres unmarked) [Example 45, pyrrolidine-1-carboxylic acid 4-(2,6-dichloro-pyridin-4-ylmethoxycarbonylamino)-cyclohexylmethyl ester] | 7.5 | 9.9
O=C(NC1CCC(COC(=O)N2CCCC2)CC1)OCc1cccc(Cl)n1 (centres unmarked) [Example 46, pyrrolidine-1-carboxylic acid 4-(6-chloro-pyridin-2-ylmethoxycarbonylamino)-cyclohexylmethyl ester] | 26.3 | 32
O=C(NC1CCC(COC(=O)N2CCCC2)CC1)OCc1ccc(Cl)nc1 (centres unmarked) [Example 47, pyrrolidine-1-carboxylic acid 4-(6-chloro-pyridin-3-ylmethoxycarbonylamino)-cyclohexylmethyl ester] | 21.1 | 13.1
